Key:
HEL cells = assay: Minimum cytotoxic concentration, alteration of cell morphology in HEL cells; assay type: cell-based, human; conditions: for Minimum cytotoxic concentration (HEL): Table 2, microscopically detectable alteration of cell morphology; for Minimum cytotoxic concentration (MCC) (HEL): Table 1, microscopically detectable alteration of normal cell morphology
TK+ VZV strain YS = assay: Plaque reduction, TK+ VZV strain YS in HEL cells; assay type: cell-based, varicella-zoster virus; conditions: Human alphaherpesvirus 3, HEL, read-out: EC50 TK+ VZV strains YS
HIV-1 = conditions: cited from earlier work

Row | SMILES | Minimum cytotoxic concentration (HEL) (HEL cells) | EC50 (TK+ VZV strain YS) | Minimum cytotoxic concentration (MCC) (HEL) (HEL cells) | activity against HIV-1 in PBM cells (HIV-1)
1 | Nc1nc2c(ncn2COCCO)c(=O)[nH]1 [Acyclovir, reference compound] | >400 µM |  |  | 
2 | O=c1[nH]c(=O)n([C@H]2C[C@H](O)[C@@H](CO)O2)cc1/C=C/Br [Brivudin, reference compound] | ⩾300 μM | 11 nM |  | 
3 | C[C@H](NP(=O)(OC[C@H]1O[C@@H](n2cc(I)c(=O)[nH]c2=O)C(F)(F)[C@@H]1O)Oc1ccccc1)C(=O)OCc1ccccc1 (stereo partly drawn) [Compound 16, 2′-Deoxy-2′,2′-difluoro-D-5-iodouridine 5′-O-phenyl-(benzoxy-alaninyl)-phosphate] |  |  | >100 µM | 
4 | COC(=O)[C@H](C)NP(=O)(OC[C@H]1O[C@@H](n2cc(I)c(=O)[nH]c2=O)C(F)(F)[C@@H]1O)Oc1ccccc1 (stereo partly drawn) [Compound 17, 2′-Deoxy-2′,2′-difluoro-D-5-iodouridine 5′-O-phenyl-(methoxy-alaninyl)-phosphate] | >50 µM |  | >100 µM | 
5 | C[C@H](NP(=O)(OC[C@H]1O[C@@H](n2cc(Br)c(=O)[nH]c2=O)C(F)(F)[C@@H]1O)Oc1ccccc1)C(=O)OCc1ccccc1 (stereo partly drawn) [Compound 20, 2′-Deoxy-2′,2′-difluoro-D-5-bromouridine 5′-O-phenyl-(benzoxy-alaninyl)-phosphate] | >50 µM |  | >100 µM | 
6 | C[C@H](NP(=O)(OC[C@H]1O[C@@H](n2cc(Cl)c(=O)[nH]c2=O)C(F)(F)[C@@H]1O)Oc1ccccc1)C(=O)OCc1ccccc1 (stereo partly drawn) [Compound 21, 2′-Deoxy-2′,2′-difluoro-D-5-chlorouridine 5′-O-phenyl-(benzoxy-alaninyl)-phosphate] | >50 µM |  | >100 µM | 
7 | Nc1nc(O)c2ncn(COC(CO)CO)c2n1 [Ganciclovir, reference compound] |  |  | >100 µM | 
8 | Nc1ncnc2c1ncn2C1OC(CO)C(O)C1(F)F (stereo not drawn) [adenine derivative] |  |  |  | 3.4 µM

Reference: paper PMC7127735 (Bioorganic & Medicinal Chemistry, 2011)
